Assay results reported in patent publication US8933040B2, “Selective glycosidase inhibitors and uses thereof” (priority 2010, dated 2015).
Read-outs that look alike come from different tables or passages of the source.

Key:
human O-GlcNAcase = human O-GlcNAcase (Homo sapiens (Human), UniProt O60502); assay: Fluorescence-based assay for determination of KI values for inhibition of O-GlcNAcase activity; assay type: biochemical
Description: Assay for Determination of KI Values for Inhibition of O-GlcNAcase Activity
Experimental Procedure for Kinetic Analyses:
Enzymatic reactions were carried out in a reaction containing 50 mM NaH2PO4, 100 mM NaCl and 0.1% BSA (pH 7.0) using 2 mM 4-Methylumbelliferyl N-acetyl-β-D-glucosaminide dihydrate (Sigma M2133) dissolved in ddH2O, as a substrate. The amount of purified human O-GlcNAcase enzyme used in the reaction was 0.7 nM. Test compound of varying concentrations was added to the enzyme prior to initiation of the reaction. The reaction was performed at room temperature in a 96-well plate and was initiated with the addition of substrate. […] The slope of product production was determined for each concentration of compound tested and plotted, using standard curve fitting algorithms for sigmoidal dose response curves. The values for a four parameter logistic curve fit of the data were determined.

O-GlcNAcase = O-GlcNAcase (Rattus norvegicus (Rat), UniProt Q8VIJ5); assay: Cell-based ELISA for cellular activity of O-GlcNAcase inhibitors (O-GlcNAcylated protein, RL-2 antibody)
Chain of O-GlcNAcase (Q8VIJ5 whole entry): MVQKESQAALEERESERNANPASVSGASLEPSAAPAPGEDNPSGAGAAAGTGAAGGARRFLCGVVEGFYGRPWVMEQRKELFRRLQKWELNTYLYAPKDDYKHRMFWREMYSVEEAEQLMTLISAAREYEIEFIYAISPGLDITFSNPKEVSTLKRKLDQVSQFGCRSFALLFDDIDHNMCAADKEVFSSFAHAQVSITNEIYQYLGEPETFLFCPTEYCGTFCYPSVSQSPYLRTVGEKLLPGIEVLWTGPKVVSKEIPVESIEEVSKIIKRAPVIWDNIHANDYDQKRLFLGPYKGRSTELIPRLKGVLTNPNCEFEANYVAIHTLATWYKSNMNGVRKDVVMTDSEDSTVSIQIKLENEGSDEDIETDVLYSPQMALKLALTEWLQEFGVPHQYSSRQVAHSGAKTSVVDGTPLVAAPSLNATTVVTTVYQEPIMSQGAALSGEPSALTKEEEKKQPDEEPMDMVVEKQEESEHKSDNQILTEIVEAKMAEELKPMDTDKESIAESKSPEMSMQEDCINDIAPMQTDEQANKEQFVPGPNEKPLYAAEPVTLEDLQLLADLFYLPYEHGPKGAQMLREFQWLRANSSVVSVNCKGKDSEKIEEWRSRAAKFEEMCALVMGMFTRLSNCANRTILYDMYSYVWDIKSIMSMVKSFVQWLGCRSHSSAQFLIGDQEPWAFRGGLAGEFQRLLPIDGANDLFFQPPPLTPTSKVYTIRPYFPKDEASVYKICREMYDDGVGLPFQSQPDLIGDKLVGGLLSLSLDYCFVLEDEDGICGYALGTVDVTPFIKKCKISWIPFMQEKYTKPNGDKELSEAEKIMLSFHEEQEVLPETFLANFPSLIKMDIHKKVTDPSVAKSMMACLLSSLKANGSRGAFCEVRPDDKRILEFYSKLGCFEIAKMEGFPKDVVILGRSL
Description: Assay for Determination of Cellular Activity for Compounds that Inhibit O-GlcNAcase Activity
Inhibition of O-GlcNAcase, which removes O-GlcNAc from cellular proteins, results in an increase in the level of O-GlcNAcylated protein in cells. An increase in O-GlcNAcylated protein can be measured by an antibody, such as RL-2, that binds to O-GlcNAcylated protein. The amount of O-GlcNAcylated protein:RL2 antibody interaction can be measured by enzyme linked immunosorbant assay (ELISA) procedures.
A variety of tissue culture cell lines, expressing endogenous levels of O-GlcNAcase, can be utilized; examples include rat PC-12, and human U-87, or SK—N—SH cells. Rat PC-12 cells were plated in 96-well plates with approximately 10,000 cells/well. Compounds to be tested were dissolved in DMSO, either 2 or 10 mM stock solution, and then diluted with DMSO and water in a two-step process using a Tecan workstation. […] If desired, the total protein concentration of samples was determined using 20 μL of the sample using the BCA method. […]
The values for a four parameter logistic curve fit of the data were determined, with the inflection point of the curve being the potency value for the test compound.

[1] = purified human O-GlcNAcase 0.7 nM, 2 mM 4-Methylumbelliferyl N-acetyl-β-D-glucosaminide, pH 7.0, Cheng-Prusoff, read-out: Fluorescence-based hOGA Ki

Chain of human O-GlcNAcase (O60502 whole entry): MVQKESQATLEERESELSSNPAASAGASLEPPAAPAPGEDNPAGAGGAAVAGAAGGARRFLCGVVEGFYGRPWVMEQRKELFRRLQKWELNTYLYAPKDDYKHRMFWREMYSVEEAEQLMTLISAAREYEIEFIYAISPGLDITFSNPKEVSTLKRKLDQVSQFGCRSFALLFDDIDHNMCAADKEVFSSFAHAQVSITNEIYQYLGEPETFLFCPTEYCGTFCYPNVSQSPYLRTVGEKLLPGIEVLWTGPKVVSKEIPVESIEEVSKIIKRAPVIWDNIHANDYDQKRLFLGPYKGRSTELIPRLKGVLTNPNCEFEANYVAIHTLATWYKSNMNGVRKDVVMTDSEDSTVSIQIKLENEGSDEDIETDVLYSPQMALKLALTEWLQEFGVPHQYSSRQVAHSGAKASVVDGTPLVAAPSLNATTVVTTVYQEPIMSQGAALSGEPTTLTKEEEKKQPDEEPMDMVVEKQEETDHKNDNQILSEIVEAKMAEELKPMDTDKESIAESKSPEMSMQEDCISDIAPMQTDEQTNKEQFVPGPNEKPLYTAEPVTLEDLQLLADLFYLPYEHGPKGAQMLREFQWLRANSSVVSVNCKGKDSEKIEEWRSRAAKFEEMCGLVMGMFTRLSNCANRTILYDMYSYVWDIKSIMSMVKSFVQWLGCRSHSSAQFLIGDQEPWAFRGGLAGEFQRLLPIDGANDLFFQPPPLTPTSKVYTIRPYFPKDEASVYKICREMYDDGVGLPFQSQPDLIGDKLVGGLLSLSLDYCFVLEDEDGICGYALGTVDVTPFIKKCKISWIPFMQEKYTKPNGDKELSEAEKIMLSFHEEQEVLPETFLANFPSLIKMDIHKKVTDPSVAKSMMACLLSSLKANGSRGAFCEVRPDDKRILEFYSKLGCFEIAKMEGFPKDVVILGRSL

Row | Ki (human O-GlcNAcase; [1]) [nM] | SMILES | other results
1 |  | OC[C@H]1O[C@@H]2SC(N3CCC3)=N[C@@H]2[C@@H](O)C1O (stereo in doubt) [Example 1, (3aR,5R,6S,7R,7aR)-2-(azetidin-1-yl)-5-(hydroxymethyl)-5,6,7,7a-tetrahydro-3aH-pyrano[3,2-d]thiazole-6,7-diol] | Ki (human O-GlcNAcase): 3.3 nM; EC50 (O-GlcNAcase): 28 nM
2 | 101 | O[C@H]1[C@H](O)[C@@H](CNC2CC2)O[C@@H]2SC(N3CCC3)=N[C@H]12 [Example 16, (3aR,5R,6S,7R,7aR)-2-(azetidin-1-yl)-5-((cyclopropylamino)methyl)-5,6,7,7a-tetrahydro-3aH-pyrano[3,2-d]thiazole-6,7-diol] | 
3 | 289 | OC[C@H]1O[C@@H]2SC(N3CCOCC3)=N[C@@H]2[C@@H](O)[C@@H]1O [Example 14, (3aR,5R,6S,7R,7aR)-5-(hydroxymethyl)-2-morpholino-5,6,7,7a-tetrahydro-3aH-pyrano[3,2-d]thiazole-6,7-diol] | 
4 | 13 | OC[C@H]1O[C@@H]2SC(N3CCCC3)=N[C@@H]2[C@@H](O)[C@@H]1O [Example 7, (3aR,5R,6S,7R,7aR)-5-(hydroxymethyl)-2-(pyrrolidin-1-yl)-5,6,7,7a-tetrahydro-3aH-pyrano[3,2-d]thiazole-6,7-diol] | EC50 (O-GlcNAcase; Rat PC-12 cells, 24 h treatment, increase in O-GlcNAcylated protein detected with RL-2 antibody, read-out: Cell-based ELISA EC50): 165 nM
5 | 142 | COC1CN(C2=N[C@@H]3[C@@H](O)[C@H](O)[C@@H](CO)O[C@@H]3S2)C1 [Example 5, (3aR,5R,6S,7R,7aR)-5-(hydroxymethyl)-2-(3-methoxyazetidin-1-yl)-5,6,7,7a-tetrahydro-3aH-pyrano[3,2-d]thiazole-6,7-diol] | 
6 | 350 | CN(C)C(=O)OC[C@H]1O[C@@H]2SC(N3CCC3)=N[C@@H]2[C@@H](O)[C@@H]1O [Example 18, ((3aR,5R,6S,7R,7aR)-2-(azetidin-1-yl)-6,7-dihydroxy-5,6,7,7a-tetrahydro-3aH-pyrano[3,2-d]thiazol-5-yl)methyl dimethylcarbamate] | 

Row | SMILES | Ki (human O-GlcNAcase; [1]) [nM] | other results
7 | OC[C@H]1O[C@@H]2SC(N3CC(F)C3)=N[C@@H]2[C@@H](O)[C@@H]1O [Example 3, (3aR,5R,6S,7R,7aR)-2-(3-fluoroazetidin-1-yl)-5-(hydroxymethyl)-5,6,7,7a-tetrahydro-3aH-pyrano[3,2-d]thiazole-6,7-diol] | 30 | 
